Patent EP4257133A1, “OXO-AZAHETEROCYCLIC DERIVATIVES FOR USE IN THE TREATMENT OF MALARIA” (Institut Pasteur, priority 2022, dated 2023)
Like-named read-outs stand apart in the source and are kept apart here.

How the values were obtained:
NF54 Kelch13^C580Y [1] = experiment: Ring stage survival assay (RSA); format: cell-based, P. falciparum; conditions: mean ± SD of six experiments
Text: (§1) In early and late trophozoites, multiple PRDX6 foci (white arrow heads) were observed adjacent to the parasite FV. DNA, Hoechst 33342 (nuclei). Scale bars: 5 µm. (B-F) Immuno-transmission electron microscopy (TEM) using monoclonal mouse anti-PRDX6 antibody. (B) Uninfected RBC showing even cytosolic staining for PRDX6. (C-F) P. falciparum-infected RBCs show co-localization of PRDX6 and hemoglobin in vesicles at the inner surface of the parasite plasma membrane in structures that resemble cytostomes (black arrows), at the FV (white arrows), or within the parasite cytosol (striped grey arrow). Scale bars: 500 nm. […] Parasites were treated at ring stage and growth to schizont stage in the same cycle ("progression") or to next generation rings ("growth") was scored by flow cytometry using DNA intercalating fluorescent dye SYBR Green I. • Figure 3 concerns the radioactive PLA2 activity assay using phosphorylated recombinant human PRDX6 in presence or absence of Darapladib. Darapladib inhibits PLA2 activity of PRDX6 with IC50 of ≈0.5µM. • Figure 4 is related to the co-treatment of ART-resistant parasites with artemisinin and Darapladib synergistically reduces parasite survival. (A) Ring stage survival assays (RSA) (Witkowski et al., Lancet Infect. Dis. 13, 1043-1049 (2013)) with Darapladib (Dar) and Dihydroartemisinin (DHA) against ART-resistant P. falciparum strains. For detailed data regarding synergism, cf. Table 1. (B) Growth/Progression assay with continuous Darapladib treatment against ART-resistant P. falciparum strains. Data are means ± SD of three independent experiments, unpaired t-tests. […] The thermal shift of the melting temperature of PRDX6 in presence of Darapladib was determined using a SYPRO orange-based differential scanning fluorimetry (DSF) assay. ΔTm > 0.5°C was considered significant. Incubation with 25µM Darapladib decreased the Tm of PRDX6 by 1.1 ± 0.2 °C.
(§2) It has been investigated whether co-treatment with Darapladib and ART could restore ART-susceptibility in the ring stage survival assay (RSA).
(§3) The survival rate for treatment with 1 µM Darapladib alone and 700 nM DHA alone was multiplied to calculate a theoretical survival rate if the effect of the combination was additive ("Calc. Additive"). The experimentally measured survival rate ("Measured") was divided by the calculated theoretical additive survival rate for the co-treatment. A ratio < 1 for Measured/Calc. indicates synergism, a ratio = 1 indicates an additive effect and a ratio > 1 indicates an antagonistic effect. Data are means ± SD of six independent experiments for NF54 C580Y and three independent experiments for 3815, unpaired t-test.

3815 strain [2] = experiment: Ring stage survival assay (RSA); format: cell-based, P. falciparum; conditions: mean ± SD of three experiments
Text: as §1, §2, §3

[3] = molecular target: T1, phosphorylated recombinant human PRDX6 (Homo sapiens, UniProt P30041); experiment: Radioactive PLA2 activity assay; format: biochemical; conditions: read-out: IC50 of inhibition of PLA2 activity of PRDX6
T1 sequence (P30041 1-224): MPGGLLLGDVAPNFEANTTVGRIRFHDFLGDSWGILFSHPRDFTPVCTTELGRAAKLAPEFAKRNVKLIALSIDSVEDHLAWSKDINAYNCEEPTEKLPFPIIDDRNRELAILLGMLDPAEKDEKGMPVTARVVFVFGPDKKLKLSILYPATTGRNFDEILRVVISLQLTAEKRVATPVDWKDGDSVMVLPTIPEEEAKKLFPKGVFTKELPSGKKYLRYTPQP
Text: as §1, with “survival.” for “survival. (A) Ring stage survival assays (RSA) (Witkowski et al., Lancet Infect. Dis. 13, 1043-1049 (2013)) with Darapladib (Dar) and Dihydroartemisinin (DHA) against ART-resistant P. falciparum strains. For detailed data regarding synergism, cf. Table 1. (B) Growth/Progression assay with continuous Darapladib treatment against ART-resistant P. falciparum strains. Data are means ± SD of three independent experiments, unpaired t-tests.”, “Incubation with 25µM Darapladib decreased the Tm of PRDX6 by 1.1 ± 0.2 °C.” left out

PRDX6 [4] = molecular target: T2, PRDX6 (Homo sapiens, UniProt P30041); experiment: Activity-based protein profiling (ABPP), competition with the probe TAMRA-FP; format: binding; conditions: fluorescent labelling of PRDX6
T2 sequence (P30041 1-224): T1 sequence (P30041 1-224)
Text: Darapladib has been assessed for the binding to the PLA2 active site of PRDX6 by activity-based protein profiling (ABPP) using recombinant human PRDX6 and the fluorescently tagged probe TAMRA-FP that covalently labels the serine in the PLA2 active site of PRDX6.

PRDX6 [5] = molecular target: T2, PRDX6; experiment: ITDR-CETSA (IsoThermal Dose Response-Cellular Thermal Shift Assay); format: cell-based; parameters: endogenous in cells; inferred to be P. falciparum-infected human red blood cells, because host and parasite proteins were profiled together; conditions: host and parasite proteins
P. falciparum 3D7 = experiment: Blood stage progression and growth assay, flow cytometry with SYBR Green I; format: cell-based; conditions: for IC50: Plasmodium falciparum, 3D7, n = 3 in triplicates
Text: as §1, with “1.” for “1. (B) Growth/Progression assay with continuous Darapladib treatment against ART-resistant P. falciparum strains. Data are means ± SD of three independent experiments, unpaired t-tests.”, “Incubation with 25µM Darapladib decreased the Tm of PRDX6 by 1.1 ± 0.2 °C.” left out
Darapladib was also tested in vitro for its ability to block P. falciparum blood stage growth and progression from rings to schizonts. Synchronous P. falciparum 3D7 cultures were treated at the ring stage and effects on ring to schizont development ("progression") and multiplication following completion of a full blood stage cycle ("growth") were assessed by flow cytometry using the DNA intercalating fluorescent dye SYBR Green I. […]

PRDX6 [6] = molecular target: T2, PRDX6; experiment: SYPRO orange-based differential scanning fluorimetry (DSF) assay; format: binding; parameters: endogenous in cells; inferred to be P. falciparum-infected human red blood cells, because host and parasite proteins were profiled together; conditions: incubation with 25µM; ΔTm > 0.5°C considered significant
Text: (§4) In early and late trophozoites, multiple PRDX6 foci (white arrow heads) were observed adjacent to the parasite FV. DNA, Hoechst 33342 (nuclei). Scale bars: 5 µm. (B-F) Immuno-transmission electron microscopy (TEM) using monoclonal mouse anti-PRDX6 antibody. (B) Uninfected RBC showing even cytosolic staining for PRDX6. (C-F) P. falciparum-infected RBCs show co-localization of PRDX6 and hemoglobin in vesicles at the inner surface of the parasite plasma membrane in structures that resemble cytostomes (black arrows), at the FV (white arrows), or within the parasite cytosol (striped grey arrow). Scale bars: 500 nm. […] Parasites were treated at ring stage and growth to schizont stage in the same cycle ("progression") or to next generation rings ("growth") was scored by flow cytometry using DNA intercalating fluorescent dye SYBR Green I. • Figure 3 concerns the radioactive PLA2 activity assay using phosphorylated recombinant human PRDX6 in presence or absence of Darapladib. […] The thermal shift of the melting temperature of PRDX6 in presence of Darapladib was determined using a SYPRO orange-based differential scanning fluorimetry (DSF) assay. ΔTm > 0.5°C was considered significant. […]
Binding of the compounds of the invention to PRDX6 induces a significant shift in the melting temperature of PRDX6 which can be detected using the hydrophobic fluorescent dye SYPRO orange (Figure 5). […]

NF54 Kelch13^C580Y [7] = experiment: Growth/Progression assay with continuous treatment; format: cell-based, P. falciparum; conditions: continuous treatment during the complete blood stage cycle
Text: as §4, with “Darapladib. Darapladib inhibits PLA2 activity of PRDX6 with IC50 of ≈0.5µM. • Figure 4 is related to the co-treatment of ART-resistant parasites with artemisinin and Darapladib synergistically reduces parasite survival.” for “Darapladib.”

3815 strain [8] = experiment: Growth/Progression assay with continuous treatment; format: cell-based, P. falciparum; conditions: continuous treatment during the complete blood stage cycle
Text: as §4, with “Darapladib. Darapladib inhibits PLA2 activity of PRDX6 with IC50 of ≈0.5µM. • Figure 4 is related to the co-treatment of ART-resistant parasites with artemisinin and Darapladib synergistically reduces parasite survival.” for “Darapladib.”

| Compound | Parasite survival, Drugs Alone, DHA (NF54 Kelch13^C580Y [1]; 700 nM DHA alone) | Parasite survival, Drugs Alone, DHA (3815 strain [2]; 3815, 700 nM DHA alone) | IC50 [3] | Parasite survival, Drugs Alone, Dar 1µM (NF54 Kelch13^C580Y [1]; 1 µM Darapladib alone) | Parasite survival, Drugs Alone, Dar 1µM (3815 strain [2]; 3815, 1 µM Darapladib alone) | binding to the PLA2 active site of PRDX6 (PRDX6 [4]) | specificity for PRDX6 (PRDX6 [5]) | parasite development (P. falciparum 3D7; 3D7 cultures treated at the ring stage) | IC50 (P. falciparum 3D7; ring stage to schizont, read-out: IC50 for parasite progression) | IC50 (P. falciparum 3D7; whole cycle, ring to ring, read-out: IC50 for parasite growth) | decrease of the Tm of PRDX6 (PRDX6 [6]) | blood stage growth (NF54 Kelch13^C580Y [7]) | blood stage growth (3815 strain [8]) |
| --- | --- | --- | --- | --- | --- | --- | --- | --- | --- | --- | --- | --- | --- |
| C[C@H]1[C@@H](O)O[C@@H]2O[C@@]3(C)CC[C@H]4[C@H](C)CC[C@@H]1[C@@]24OO3 [DHA, Dihydroartemisinin] | 7.9 ± 1.7% | 7.1 ± 0.9% | – | – | – | – | – | – | – | – | – | – | – |
| CCN(CC)CCN(Cc1ccc(-c2ccc(C(F)(F)F)cc2)cc1)C(=O)Cn1c(SCc2ccc(F)cc2)nc(=O)c2c1CCC2 [Darapladib] | – | – | ~500 nM | 89.0 ± 8.1% | 94.7 ± 3.2% | bound the PLA2 active site of PRDX6, competed with TAMRA-FP and reduced the fluorescent labelling of PRDX6 | no other essential host or parasite protein is targeted | arrested parasite development at the trophozoite stage | 560 nM | 760 nM | 1.1 ± 0.2 °C | effectively blocked blood stage growth | effectively blocked blood stage growth |
